Holding throughout (type): cell-based
The test system of assay [1] is binding of STAT3/5 to TET1 promoter. Description: ChIP-qPCR in MONOMAC-6 cells. The settings on record: 500 nM, 48 hrs. The method, then: ChIP assay was conducted as described previously (Barry, S. P., et al., STAT3 modulates the DNA damage response pathway, Int J Exp Pathol 91:506-14 (2010)), with SABiosciences Corporation's ChampionChIP One-Day kit (Qiagen, Frederick, Md.) following the manufacturer's protocol. Chromatin from MONOMAC-6 cells were cross-linked, sonicated into an average size of ˜500 bp, and then immunoprecipitated with antibodies against STAT3 (Santa Cruz, Dallas, Tex.), STAT5 (BD Biosciences, San Jose, Calif.), or IgG (Abcam, Cambridge, Mass.). Purified DNA was amplified by real-time qPCR using primers targeting the promoter of TET1 as described before (Huang, H., et al., TET1 plays an essential oncogenic role in MLL-rearranged leukemia, Proc Natl Acad Sci USA 110:11994-99 (2013)). Sequences of qPCR primers are: Site 1 forward: 5′-[…]-3′ (SEQ ID NO: 3), reverse: 5′-[…]-3′ (SEQ ID NO: 4); Site 2 forward: 5′-[…]-3′ (SEQ ID NO: 5), reverse: 5′-[…]-3′ (SEQ ID NO: 6); Site 3 forward: 5′-[…]-3′ (SEQ ID NO: 7), reverse: 5′-[…]-3′ (SEQ ID NO: 8); Site 4 forward: 5′-[…]-3′ (SEQ ID NO: 9); reverse: 5′-[…]-3′ (SEQ ID NO: 10).
On the technique in general: In qPCR the cycle at which signal appears reflects the starting amount.

Assay [2] has as its system Tet1 deficient mouse BM progenitor cells transduced with MLL-AF9. Description: Viability of MLL-AF9-transduced Tet1 deficient BM progenitor cells. The settings on record: 48 hrs; for cell viability: Tet1 deficient counterpart cells; for viability of cells with induced Tet1 deficiency: conditional Tet1 knockout, polyI:C induced, 500 nM. The method, then: (§1) FIG. 5. […] Gene expression levels are shown. […] ChIP-qPCR assay was carried out 48 hrs after drug treatment. Enrichment of STAT3, STAT5, or IgG at the TET1 promoter region and other regions are shown. […] BM progenitor cells of wild-type or Tet1^−/− mice were retrovirally transduced with MLL-AF9. […] Relative cell viabilities are shown. (m) Cre-Tet1f mouse BM progenitor cells were retrovirally transduced with MLL-AF9. […] Relative cell viability is shown. (n-o) THP-1 (n) and MONOMAC-6 (o) cells were infected with lentivirus of pLenti-puro vector-based Tet1 construct. […] Relative cell viability is shown. *, P<0.05; **, P<0.01, two-tailed t-test. Error bar indicates SD of triplicate experiments.
FIG. 13. […] (a-d) BM progenitor cells of wild-type or Tet1^−/− mice were retrovirally transduced with MLL-AF9. Infected cells were treated with 200 nM JAK/STAT inhibitors individually, including Pacritinib (a), KW-2449 (b), Stattic (c) or sc-355979 (d), for 48 hrs. Relative cell viabilities are shown. (e) Cre-Tet1^fl/fl mouse BM progenitor cells were retrovirally transduced with MLL-AF9. […] Cell viabilities (normalized to non-induced Cre-Tet1^fl/fl treated with DMSO control) are shown. ‘K, P<0.05; ‘K‘K, P<0.01, two-tailed t-test
siRNAs were transfected into MONOMAC-6 cells with Cell Line Nucleofector Kit V following program T-037, using the Amaxa Nucleofector Technology (Amaxa Biosystems, Berlin, Germany). Experiments were performed 48 h after transfection. Retrovirus infection of mouse BM progenitor cells were conducted as described previously with some modifications. Briefly, retrovirus vectors were co-transfected with pCL-Eco packaging vector (IMGENEX, San Diego, Calif.) into HEK293T cells using Effectene Transfection Reagent (Qiagen, Valencia, Calif.) to produce retrovirus. BM cells were harvested from a cohort of 4- to 6-week-old C57BL/6, Tet1^−/−, or Cre-Tet1^fl/fl donor mice after five days of 5-fluorouracil (5-FU) treatment, and primitive hematopoietic progenitor cells were enriched with Mouse Lineage Cell Depletion Kit (Miltenyi Biotec Inc., Auburn, Calif.). An aliquot of enriched hematopoietic progenitor cells was added to retroviral supernatant together with polybrene in cell culture plates, which were centrifuged at 2,000 g for 2 hours at 32° C. (i.e., spinoculation) and then the medium was replaced with fresh media and incubated for 20 hours at 37° C. Next day, the same procedure was repeated once. Infected cells were grown in RPMI 1640 medium containing 10 ng/mL murine recombinant IL-3, 10 ng/mL IL-6, 100 ng/mL murine recombinant SCF (R&D Systems, Minneapolis, Minn.), along with 1.0 mg/ml of G418. Experiments were performed 7 days after infection.
(§2) These experiments were conducted as described previously (Jiang, X., et al., Blockade of miR-150 Maturation by MLL-Fusion/MYC/LIN-28 Is Required for MLL-Associated Leukemia, Cancer Cell 22:524-35 (2012); Li, Z., et al., miR-196b directly targets both HOXA9/MEIS1 oncogenes and FAS tumour suppressor in MLL-rearranged leukaemia, Nat Commun 2:688 (2012)) with ApoLive-Glo Multiplex Assay Kit, or CellTiter 96 AQueous Non-Radioactive Cell Proliferation Assay Kit (Promega, Madison, Wis.).

Assay [3] relates to wild-type mouse BM progenitor cells transduced with MLL-AF9. In words: Viability of MLL-AF9-transduced wild-type BM progenitor cells. Particulars: 48 hrs. The protocol:
as §1
siRNAs were transfected into MONOMAC-6 cells with Cell Line Nucleofector Kit V following program T-037, using the Amaxa Nucleofector Technology (Amaxa Biosystems, Berlin, Germany). Experiments were performed 48 h after transfection. Retrovirus infection of mouse BM progenitor cells were conducted as described previously with some modifications. Briefly, retrovirus vectors were co-transfected with pCL-Eco packaging vector (IMGENEX, San Diego, Calif.) into HEK293T cells using Effectene Transfection Reagent (Qiagen, Valencia, Calif.) to produce retrovirus. […]

The test system of another assay is MONOMAC-6 cells. In words: MTS cell viability, MONOMAC-6. The settings on record: 48 hrs. The method, then:
In order to identify chemical compounds that may target TET1 signaling, the drug-sensitivity/gene expression database of a total of 20,602 chemical compounds in the NCI-60 collection of cancer cell samples was searched.
All cell lines were authenticated through STR profiling yearly.
as §2

The values below come from patent publication US11311513B2, “Methods, agents, and compositions for the treatment of acute myeloid leukemia” (UNIVERSITY OF CINCINNATI, priority 2017, dated 2022).

Structures are written as SMILES.

By IC50 is commonly meant the point on the concentration scale where inhibition reaches its midpoint. In the case of `COc1cc(C(c2cc3c(cc2O)OCO3)N2CCCC2)cc(OC)c1OC` (stereo not shown) [NSC-370284, 6-(1-Pyrrolidinyl(3,4,5-trimethoxyphenyl)methyl)-1,3-benzodioxol-5-ol], the “binding of STAT3 and STAT5 on the TET1 loci/promoter” value in assay [1] was “could be disturbed”. In assay [2], the cell viability result is given as “no such inhibition” and the “viability of cells with induced Tet1 deficiency” value is “no significant effect”. For the same molecule, the cell viability result in assay [3] is on record as “remarkable repression of cell viability”. Further, the 50% inhibitory concentration (IC50) in the assay with MONOMAC-6 cells (Homo sapiens, MONO-MAC-6, MONOMAC-6 cells, unit inferred, read-out: IC50 MMC6) stood at 0.385 nM.
On to `CC(C)(C)c1cc(C(c2cc3c(cc2O)OCO3)N2CCOCC2)cc(C(C)(C)C)c1O` (stereo not shown) [UC-514321, 6-{[4-Hydroxy-3,5-bis(2-methyl-2-propanyl)phenyl](4-morpholinyl)methyl}-1,3-benzodioxol-5-ol], for which the “binding of STAT3 and STAT5 on the TET1 loci/promoter” value in assay [1] was “remarkable repression”. Further, the cell viability entry in assay [2] is “no such inhibition”; in assay [3], “remarkable repression of cell viability”. Further, the “viability of cells with induced Tet1 deficiency” value in assay [2] is listed as “no significant effect”. The “MONOMAC-6 cell viability among 30 analogues” value with MONOMAC-6 cells (MTS) is “most significantly repressed”.
